Where two headings read alike, the source gives them in different places.
Experiments:
[1] = tested on: thylakoid membrane, electron transfer reaction of two photosystems, especially photosystem II; format: biochemical
[2] = tested on: main weeds in the cropland; format: in vivo
Striga hermonthica = conditions: 10-4 mol/L; cited from earlier work
weeds = conditions: in vivo; cited from earlier work

| SMILES | apparent quanta efficiency [1] | electron transfer reaction of two photosystems, especially photosystem II [1] | photosynthetic oxygen evolution rate [1] | time to distinct toxic symptom ([2]; in vivo) | time to obvious injuried symptom ([2]; in vivo) | inhibitory effect on the seed germination (Striga hermonthica) | time to distinct toxic symptom ([2]; sprayed on the stems and leaves, 5 to 800 μg/g) | time to obvious injuried symptom ([2]; stem or leaf treatment) | time to kill the weeds (weeds) |
| --- | --- | --- | --- | --- | --- | --- | --- | --- | --- |
| CCC(C)C1NC(=O)C(C(C)=O)=C1O (stereo not shown) [tenuazonic acid] | obviously reduce | inhibiting | obviously reduce | five | 12 h | around 50% | – | – | – |
| CC(=O)C1=C(O)C(CC(C)C)NC1=O (stereo not shown) [iso-tenuazonic acid] | obviously reduce | inhibiting | obviously reduce | – | – | around 50% | five | 12 h | – |
| O=C(O)CNCP(=O)(O)O [glyphosate] | – | – | – | – | – | – | – | – | at least 10 days |

Source: US20080280761A1 (priority 2005, published 2008)
